Source: PubChem BioAssay (NCI)
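Five compound concentrations were applied to cells in 96-well plates for 48 hours; endpoints were derived by simple linear interpolation of the resulting dose-response curve. GI50 marks 50% less growth. The concentration for full growth arrest is given as TGI.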

Legend:
Test in all cases: inhibition of tumour cell growth, NCI panel, 48 h
COLO 205 colon = system: COLO 205 colon
NCI-H522 lung = system: NCI-H522 lung
MOLT-4 leukemia = system: MOLT-4 leukemia
ACHN renal = system: ACHN renal
MDA-MB-435 = system: MDA-MB-435
SK-MEL-28 melanoma = system: SK-MEL-28 melanoma
U251 CNS = system: U251 CNS
HCT-116 colon = system: HCT-116 colon
DU-145 prostate = system: DU-145 prostate
SR leukemia = system: SR leukemia
SK-MEL-5 melanoma = system: SK-MEL-5 melanoma
SNB-75 CNS = system: SNB-75 CNS
UACC-62 melanoma = system: UACC-62 melanoma
NCI/ADR-RES ovarian = system: NCI/ADR-RES ovarian
IGROV1 ovarian = system: IGROV1 ovarian
A498 renal = system: A498 renal
BT-549 breast = system: BT-549 breast
RXF 393 renal = system: RXF 393 renal
LOX IMVI melanoma = system: LOX IMVI melanoma
SF-295 CNS = system: SF-295 CNS
UO-31 renal = system: UO-31 renal
HS 578T breast = system: HS 578T breast
PC-3 prostate = system: PC-3 prostate
OVCAR-4 ovarian = system: OVCAR-4 ovarian
HCT-15 colon = system: HCT-15 colon
MDA-MB-231 breast = system: MDA-MB-231 breast
CCRF-CEM leukemia = system: CCRF-CEM leukemia
NCI-H23 lung = system: NCI-H23 lung

## Cc1cc(-c2nnc3n2CCCCC3)c(C)n1-c1ccc(Cl)c(Cl)c1
COLO 205 colon
  GI50: 10.6 µM
  TGI: 25.1 µM
NCI-H522 lung
  GI50: 12.6 µM
  TGI: 28.3 µM
MOLT-4 leukemia
  GI50: 15 µM
  TGI: 42.9 µM
ACHN renal
  GI50: 12 µM
  TGI: > 100 µM
MDA-MB-435
  GI50: 10.3 µM
  TGI: 26.9 µM
SK-MEL-28 melanoma
  GI50: 10.7 µM
  TGI: 23.2 µM
U251 CNS
  GI50: 14.5 µM
  TGI: 31.2 µM
HCT-116 colon
  GI50: 12.8 µM
  TGI: 28.7 µM
DU-145 prostate
  GI50: 27.6 µM
  TGI: > 100 µM
SR leukemia
  GI50: 11 µM
  TGI: 45.3 µM
SK-MEL-5 melanoma
  GI50: 2.18 µM
  TGI: 6.08 µM
SNB-75 CNS
  GI50: 13.4 µM
  TGI: 27.7 µM
UACC-62 melanoma
  GI50: 4.03 µM
  TGI: 17 µM
NCI/ADR-RES ovarian
  GI50: 11.9 µM
  TGI: 47.8 µM
IGROV1 ovarian
  GI50: 17.9 µM
  TGI: 42.7 µM
A498 renal
  GI50: 14 µM
  TGI: 28 µM
BT-549 breast
  GI50: 7.1 µM
  TGI: 20.3 µM
RXF 393 renal
  GI50: 8.42 µM
  TGI: 29.8 µM
LOX IMVI melanoma
  GI50: 12.1 µM
  TGI: 32.2 µM
SF-295 CNS
  GI50: 16.4 µM
  TGI: 52.5 µM
UO-31 renal
  GI50: 12.6 µM
  TGI: 36.7 µM
HS 578T breast
  GI50: 16.9 µM
  TGI: 47 µM
PC-3 prostate
  GI50: 11 µM
  TGI: 57.1 µM
OVCAR-4 ovarian
  GI50: 8.4 µM
  TGI: 57.5 µM
HCT-15 colon
  GI50: 11.7 µM
  TGI: > 100 µM
MDA-MB-231 breast
  GI50: 15.2 µM
  TGI: 33.5 µM
CCRF-CEM leukemia
  GI50: 18.5 µM
  TGI: 71.5 µM
NCI-H23 lung
  GI50: 12.3 µM
  TGI: 35.2 µM
